Reference: US9326927B2, “Use of cannabinoid compounds for stimulating melanogenesis” (L'OREAL, priority 2011, dated 2016)

How the values were obtained:
[1] = tested on: Normal human epidermal melanocytes (NHEMs); assay: Determination of the melanin content of the melanocytes (Example 1); type: cell-based; design: key to amount of melanin in NHEM cells, mean: fold of untreated control melanin amount (control = 1); conditions: for effect on amount of melanin in the melanocytes (NHEMs), in words: 1 μM, by means of the CB1 receptor; for effect of receptor antagonist on the propigmenting effect of mAEA, in words: antagonist in combination with mAEA 1 μM (SR1 0.1 μM)
Procedure: Normal human epidermal melanocytes (NHEMs) isolated from foreskins and supplied by Promocell (Heidelberg, Germany) are cultured for 24 h at 37° C. in a humid atmosphere at 5% CO2 in an appropriate culture medium M2 (Promocell).
The AEA and the other compounds are added directly to the culture medium. Twenty-four hours after each treatment, the cell viability was measured using Trypan blue exclusion dye (Maccarone et al., 2003).
The mAEA, the AEA and the ACEA are tested in vitro at a concentration of 1 μM and compared. The mAEA is also used at this concentration when it is used in combination with SR1 at 0.1 μM.
Moreover, the mAEA was also tested, alone, at concentrations of 0.5, 1.0, 1.5, 2.0, 2.5 and 3.0 μM.
The amount of melanin present in the NHEM cells is measured according to a method known to those skilled in the art (Xiao et al., Arch Dermatol Res 2007; 299: 245-57). According to this method, the NHEM cells are treated with trypsin and washed twice with a phosphate buffered saline. The samples are then resuspended in 200 μl of MilliQ water, and 1 ml of an ethanol: ether mixture (1:1, vol/vol) is added in order to remove the opaque substances other than melanin. After 15 minutes, the samples are centrifuged at 600 g for 5 minutes. The pellet is air-dried and dissolved in 200 μl of 1 N sodium hydroxide. The samples are then heated at 80° C. for one hour and cooled.
The amount of melanin is determined by spectrophotometry at 450 nm using the standard melanin controls supplied by Sigma Chemical Co., so as to verify the linearity range of the test. The amount of melanin is expressed relative to the control.
The results given are the means, with their standard deviations, of 3 independent tests, each carried out in triplicate. They were compared by analysis of variance (ANOVA).

NHEKs+NHEMs coculture = assay: Melanin production in NHEM-NHEK coculture (Example 4); type: cell-based, human; conditions: 72 h
Procedure: (§1) Primary human melanocytes (NHEMs) were seeded into 24-well plates in the presence (coculture) of normal human epidermal keratinocytes (NHEKs) and then cultured for 24 h. The cells were then treated with nothing (negative control), IBMX (positive control, 200 μM), or methanandamide (mAEA, 1 μM).
(§2) After treatment, the cells were incubated for 72 h, all the experimental conditions having been carried out in triplicate.
(§3) After 72 h of incubation, the cells were lysed with a 0.5 N NaOH solution in order to extract the melanin.
(§4) Quantification of the pigmentation by microscopic quantification of the melanin is then carried out and makes it possible to illustrate a propigmenting activity of the test compound.
(§5) The optical density of the samples was measured at 405 nm, with reference to an exogenous melanin range (standard melanin curve 0.39 to 100 μg/ml).

[2] = tested on: Primary human melanocytes (NHEMs); assay: Melanin production in NHEMs (Example 4); type: cell-based; conditions: 1 μM, 72 h
Procedure: as §1, §2, §3, §4, §5

[3] = tested on: pigmented reconstructed epidermises (normal human melanocytes and keratinocytes); assay: Propigmenting effect on pigmented reconstructed epidermises (PREs), melanin quantified by image analysis (Example 3); type: cell-based
Procedure: Pigmented epidermises are reconstructed on a collagen support (BPER [biodressing for reconstructed epidermis]) using normal human melanocytes and keratinocytes.
The epidermises are obtained after 8 days of reconstruction; the melanocytes chosen are of estimated phototype IV.1.
Some epidermises are treated daily with the placebo, others with the test product mAEA at different concentrations (1 μM and 3 μM).
Each experimental condition is performed in quadruplicate.
The histological quality of the epidermises after treatment is evaluated on histological sections after HES staining in order to determine the impact of the treatment on the epidermises. Also, the physiology of the melanocytes is studied in order to detect any melano-cytotoxicity. If no histological modification nor any melanotoxic effect of the product evaluated is noted, the pigmentation is quantified by quantifying the melanin on histological sections by image analysis.
as §4
The melanin present in the epidermis is stained on histological sections (Fontana Masson staining) and then quantified by image analysis. For this, each epidermis is photographed over its entire width using a microscope. Approximately 10 images are acquired per epidermis (white light, ×20 magnification).
The area taken up by melanin is quantified using custom-designed image analysis software. Briefly, each image is segmented into 4 zones according to their color (lumen, stratum corneum, live epidermis and BPER). […] The pixels occupied by the melanin in the whole epidermis or the live layers are then quantified.
This quantification takes into account the area taken up by the melanin and also the average localization of the melanin in the epidermis.
The results below are expressed as percentage relative stimulation with respect to the control cultured in standard coculture medium.

[4] = expressed relative to the control, compound alone at 1 μM, mean of 3 independent tests

CCCCC/C=C\C/C=C\C/C=C\C/C=C\CCCC(=O)NCCCl [ACEA, Arachidonyl-2′-chloroethylamide]
effect on amount of melanin in the melanocytes (NHEMs), in words [1]: significantly increase the amount of melanin
amount of melanin in NHEM cells, mean [1, 4]: 2.14

CCCCC/C=C\C/C=C\C/C=C\C/C=C\CCCC(=O)NCCO [Anandamide, N-arachidonoylethanolamine]
effect on amount of melanin in the melanocytes (NHEMs), in words [1]: significantly increase the amount of melanin
amount of melanin in NHEM cells, mean [1, 4]: 2.09

Cc1c(C(=O)NN2CCCCC2)nn(-c2ccc(Cl)cc2Cl)c1-c1ccc(Cl)cc1 [SR1, N-piperidino-5-(4-chlorophenyl)-1-(2,4-dichlorophenyl)-4-methyl-3-pyrazole carboxamide, reference compound]
effect of receptor antagonist on the propigmenting effect of mAEA, in words [1]: prevents mAEA from having its propigmenting effect

CCCCC/C=C\C/C=C\C/C=C\C/C=C\CCCC(=O)NC(C)CO (stereo not drawn) [mAEA, R(+)-arachidonyl-1′-hydroxy-2′-propylamide]
melanin production in NHEK+NHEM cells, in words (NHEKs+NHEMs coculture; 1 μM): increase in melanin production
melanin production in NHEKs+NHEMs compared with NHEMs alone and IBMX positive control, in words (NHEKs+NHEMs coculture; mAEA 1 μM vs IBMX 200 μM): greater than in NHEMs alone, even exceeding that of the IBMX positive control
melanin production in NHEM cells, in words [2]: increase in melanin production
melanin, percentage relative stimulation with respect to the control ([3]; 1 μM SYST D17): 315%
melanin production in pigmented reconstructed epidermises, in words ([3]; 1 μM and 3 μM, daily treatment): very large increase in melanin production
melanin, percentage relative stimulation with respect to the control ([3]; second line, printed 1 μM SYST D17): 356.25%
effect on amount of melanin in the melanocytes (NHEMs), in words [1]: significantly increase the amount of melanin
dose/effect relationship of melanin production in NHEM cells, in words ([1]; 0.5 to 3.0 μM): dose-dependent increase in melanin production
amount of melanin in NHEM cells, mean [1, 4]: 2.80
amount of melanin in NHEM cells, mean ([1]; relative to the control, mAEA 1 μM in combination with SR1 0.1 μM): 1.22
amount of melanin in NHEM cells, mean ([1]; relative to the control, mAEA alone 0.5 μM): 1.75
amount of melanin in NHEM cells, mean ([1]; relative to the control, mAEA alone 1.5 μM): 3.30
amount of melanin in NHEM cells, mean ([1]; relative to the control, mAEA alone 2 μM): 3.34
amount of melanin in NHEM cells, mean ([1]; relative to the control, mAEA alone 2.5 μM): 3.75
amount of melanin in NHEM cells, mean ([1]; relative to the control, mAEA alone 3 μM): 4.13
amount of melanin in NHEM cells, mean ([1]; relative to the control, mAEA in combination with SR2): 2.34

N-[(1S)-endo-1,3,3-trimethy-1-bicyclo[2.2.1]heptan-2-yl]-5-(4-choro-3-methylphenyl)-1-(4-methylbenzyl)pyrazole-3-carboxamide [SR2, reference compound]
effect of receptor antagonist on the propigmenting effect of mAEA, in words [1]: does not, on the other hand, prevent mAEA from having this effect
